According to patent US7994209B2, “3-phenoxymethylpyrrolidine compounds” (Theravance, Inc., priority 2009, dated 2011):
pKi: −log10 of the molar value.

Assays:
[1] = target: T1, hSERT (Homo sapiens, UniProt P31645); assay: hSERT neurotransmitter uptake assay (3H-5-HT), Assay 2; assay type: cell-based; design: expressed in transfected cells; host or cells: HEK-293; conditions: serotonin reuptake inhibition, 3H-5-HT uptake, HEK-293 hSERT cells (values without asterisk); read-out: SERT pIC50 (converted)
T1 sequence (P31645 whole entry): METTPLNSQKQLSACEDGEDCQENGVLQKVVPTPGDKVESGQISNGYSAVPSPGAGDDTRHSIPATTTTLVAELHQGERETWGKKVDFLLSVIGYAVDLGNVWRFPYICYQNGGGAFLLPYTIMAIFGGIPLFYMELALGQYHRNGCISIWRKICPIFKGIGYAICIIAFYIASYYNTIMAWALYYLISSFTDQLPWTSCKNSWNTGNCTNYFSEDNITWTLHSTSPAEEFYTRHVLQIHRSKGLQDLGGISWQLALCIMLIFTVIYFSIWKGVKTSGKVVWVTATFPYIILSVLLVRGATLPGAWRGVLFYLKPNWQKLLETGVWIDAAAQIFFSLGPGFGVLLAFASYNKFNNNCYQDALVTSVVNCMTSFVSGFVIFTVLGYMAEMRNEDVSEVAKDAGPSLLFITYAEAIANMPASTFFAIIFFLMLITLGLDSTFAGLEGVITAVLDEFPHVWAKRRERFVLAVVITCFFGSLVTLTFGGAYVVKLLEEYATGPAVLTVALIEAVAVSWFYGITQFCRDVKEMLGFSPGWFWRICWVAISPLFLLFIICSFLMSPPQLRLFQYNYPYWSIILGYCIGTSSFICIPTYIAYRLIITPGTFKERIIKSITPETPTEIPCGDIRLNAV

[2] = target: T2, hNET (Homo sapiens, UniProt P23975); assay: hNET membrane radioligand binding assay (3H-nisoxetine), Assay 1
T2 sequence (P23975 whole entry): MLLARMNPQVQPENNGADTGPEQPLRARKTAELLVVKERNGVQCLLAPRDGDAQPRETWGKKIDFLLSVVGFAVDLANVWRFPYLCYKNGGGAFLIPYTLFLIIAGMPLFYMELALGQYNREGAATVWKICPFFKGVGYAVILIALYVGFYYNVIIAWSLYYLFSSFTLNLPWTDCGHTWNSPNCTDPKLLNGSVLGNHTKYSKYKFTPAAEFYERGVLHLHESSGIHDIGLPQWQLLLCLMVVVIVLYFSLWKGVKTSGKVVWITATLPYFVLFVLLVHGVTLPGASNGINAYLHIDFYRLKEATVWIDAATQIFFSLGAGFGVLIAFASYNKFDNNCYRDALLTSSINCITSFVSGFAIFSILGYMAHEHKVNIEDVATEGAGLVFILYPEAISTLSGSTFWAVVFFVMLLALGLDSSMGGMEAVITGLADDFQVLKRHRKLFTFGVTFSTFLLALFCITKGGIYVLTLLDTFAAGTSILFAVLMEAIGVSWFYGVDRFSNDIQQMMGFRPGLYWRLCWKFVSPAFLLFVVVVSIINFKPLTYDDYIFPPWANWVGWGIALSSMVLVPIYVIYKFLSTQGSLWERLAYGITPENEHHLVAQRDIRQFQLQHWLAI

[3] = target: T2, hNET; assay: hNET neurotransmitter uptake assay (3H-NE), Assay 2; assay type: cell-based; design: expressed in transfected cells; host or cells: HEK-293; conditions: norepinephrine reuptake inhibition, 3H-NE uptake, HEK-293 hNET cells (values without asterisk); read-out: NET pIC50 (converted)
[4] = target: T1, hSERT; assay: hSERT membrane radioligand binding assay (3H-citalopram), Assay 1; conditions: SERT pKi, hSERT HEK-293 membranes, 1.0 nM 3H-citalopram; values given as lower bounds
Experimental: Membrane radioligand binding assays were used to measure inhibition of labeled ligand (^3H-citalopram or ^3H-nisoxetine or ^3H-WIN35428) binding to membranes prepared from cells expressing the respective human recombinant transporter (hSERT or hNET or hDAT) in order to determine the pKi values of test compounds at the transporters.
Recombinant human embryonic kidney (HEK-293) derived cell lines stably transfected with hSERT or hNET, respectively, were grown in DMEM medium supplemented with 10% dialyzed FBS (for hSERT) or FBS (for hNET), 100 μg/mL penicillin, 100 μg/mL streptomycin, 2 mM L-glutamine and 250 μg/mL of the aminoglycoside antibiotic G418, in a 5% CO2 humidified incubator at 37° C. When cultures reached 80% confluence, the cells were washed thoroughly in PBS (without Ca^2+ and Mg^2+) and lifted with 5 mM EDTA in PBS. Cells were pelleted by centrifugation, resuspended in lysis buffer (10 mM Tris-HCl, pH7.5 containing 1 mM EDTA), homogenized, pelleted by centrifugation, then resuspended in 50 mM Tris-HCl, pH 7.5 and 10% sucrose at 4° C. Protein concentration of the membrane suspension was determined using a Bio-Rad Bradford Protein Assay kit. Membranes were snap frozen and stored at −80° C.
Binding assays were performed in a 96-well assay plate in a total volume of 200 μl assay buffer (50 mM Tris-HCl, 120 mM NaCl, 5 mM KCl, pH 7.4) with 0.5, 1, and 3 μg membrane protein, for SERT, NET and DAT, respectively.
Stock solutions (10 mM in DMSO) of test compound were prepared and serial dilutions made using Dilution Buffer (50 mM Tris-HCl, 120 mM NaCl, 5 mM KCl, pH 7.4, 0.1% BSA, 400 μM ascorbic acid).
Following a 60 minute incubation at 22° C. (or a period sufficient to reach equilibrium), the membranes were harvested by rapid filtration over a 96-well UniFilter GF/B plate, pretreated with 0.3% polyethyleneimine, and washed 6 times with 300 μl wash buffer (50 mM Tris-HCl, 0.9% NaCl, pH 7.5 at 4° C.). Plates were dried overnight at room temperature, approximately 45 μl of MicroScint™-20 (Perkin Elmer) added and bound radioactivity quantitated via liquid scintillation spectroscopy. Inhibition curves and saturation isotherms were analyzed using GraphPad Prism Software package (GraphPad Software, Inc., San Diego, Calif.). IC50 values were generated from concentration response curves using the Sigmoidal Dose Response (variable slope) algorithm in Prism GraphPad.

Row | Compound | IC50 [1] | pKi [2] | IC50 [3] | pKi [4]
1 | CC(C)[C@H](Oc1cc(Cl)cc(Cl)c1)[C@H]1CCNC1 [Example 6-66, (S)-3-[(S)-1-(3,5-Dichlorophenoxy)-2-methylpropyl]pyrrolidine] | ≤ 10 nM | ≥ 7.00 | ≤ 100 nM | ≥ 8.00
2 | CC(C)[C@@H](Oc1cc(Cl)cc(Cl)c1)[C@H]1CCNC1 [Example 6-68, (S)-3-[(R)-1-(3,5-Dichlorophenoxy)-2-methylpropyl]pyrrolidine] | ≤ 10 nM | ≥ 8.00 | ≤ 10 nM | ≥ 8.00
3 | Cc1cc(O[C@@H](C(C)C)[C@H]2CCNC2)ccc1Cl [Example 6-70, (S)-3-[(S)-1-(4-Chloro-3-methylphenoxy)-2-methylpropyl]pyrrolidine] | ≤ 10 nM | ≥ 8.00 | ≤ 10 nM | ≥ 8.00
4 | CC(C)C(Oc1ccc(Cl)cc1)C1CCNC1 (centres unmarked) [Example 6-74, 3-[1-(4-Chlorophenoxy)-2-methylpropyl]pyrrolidine] | ≤ 10 nM | ≥ 8.00 | ≤ 10 nM | ≥ 8.00
5 | CC(C)[C@@H](Oc1ccc(Cl)cc1)[C@@H]1CCNC1 [Example 6-75, (R)-3-[(R)-1-(4-Chlorophenoxy)-2-methylpropyl]pyrrolidine] | ≤ 10 nM | ≥ 7.00 | ≤ 100 nM | ≥ 8.00
6 | CCCC[C@@H](Oc1cc(F)c(F)cc1F)[C@H]1CCNC1 [Example 7, (S)-3-[(R)-1-(2,4,5-Trifluorophenoxy)pentyl]pyrrolidine] | ≤ 100 nM | ≥ 8.00 | ≤ 10 nM | ≥ 8.00
7 | CCCC[C@@H](Oc1ccccc1Cl)[C@H]1CCNC1 [Example 8-1, (S)-3-[(R)-1-(2-Chlorophenoxy)pentyl]pyrrolidine] | ≤ 100 nM | ≥ 8.00 | ≤ 10 nM | ≥ 8.00
8 | CCCC[C@@H](Oc1ccccc1C(F)(F)F)[C@H]1CCNC1 [Example 8-2, (S)-3-[(R)-1-(2-Trifluoromethylphenoxy)pentyl]pyrrolidine] | ≤ 100 nM | ≥ 8.00 | ≤ 100 nM | ≥ 8.00
9 | CCCC[C@@H](Oc1ccc(F)cc1)[C@H]1CCNC1 [Example 8-3, (S)-3-[(R)-1-(4-Fluorophenoxy)pentyl]pyrrolidine] | ≤ 100 nM | ≥ 8.00 | ≤ 100 nM | ≥ 8.00
10 | CCCC[C@@H](Oc1ccc(Cl)cc1)[C@H]1CCNC1 [Example 8-4, (S)-3-[(R)-1-(4-Chlorophenoxy)pentyl]pyrrolidine] | ≤ 10 nM | ≥ 8.00 | ≤ 10 nM | ≥ 8.00
11 | CCCC[C@@H](Oc1c(Cl)cccc1Cl)[C@H]1CCNC1 [Example 8-12, (S)-3-[(R)-1-(2,6-Dichlorophenoxy)pentyl]pyrrolidine] | ≤ 100 nM | ≥ 8.00 | ≤ 10 nM | ≥ 8.00
12 | CCCC[C@@H](Oc1cc(Cl)cc(Cl)c1)[C@H]1CCNC1 [Example 8-13, (S)-3-[(R)-1-(3,5-Dichlorophenoxy)pentyl]pyrrolidine] | ≤ 10 nM | ≥ 8.00 | ≤ 10 nM | ≥ 8.00
13 | CC(C)C[C@H](Oc1ccccc1F)[C@H]1CCNC1 [Example 10-1, (S)-3-[(S)-1-(2-Fluorophenoxy)-3-methylbutyl]pyrrolidine] | ≤ 100 nM | ≥ 8.00 | ≤ 10 nM | ≥ 8.00
14 | CC(C)CC(Oc1ccccc1Cl)C1CCNC1 (centres unmarked) [Example 10-3, 3-[1-(2-Chlorophenoxy)-3-methylbutyl]pyrrolidine] | ≤ 100 nM | ≥ 8.00 | ≤ 10 nM | ≥ 8.00
15 | COc1ccccc1O[C@@H](CC(C)C)[C@H]1CCNC1 [Example 10-4, (S)-3-[(S)-1-(2-Methoxyphenoxy)-3-methylbutyl]pyrrolidine] | ≤ 100 nM | ≥ 8.00 | ≤ 10 nM | ≥ 8.00
16 | CC(C)C[C@H](Oc1cccc(F)c1)[C@H]1CCNC1 [Example 10-5, (S)-3-[(S)-1-(3-Fluorophenoxy)-3-methylbutyl]pyrrolidine] | ≤ 100 nM | ≥ 8.00 | ≤ 10 nM | ≥ 8.00
17 | CC(C)CC(Oc1cccc(C(F)(F)F)c1)C1CCNC1 (centres unmarked) [Example 10-7, 3-[3-Methyl-1-(3-trifluoromethylphenoxy)butyl]pyrrolidine] | ≤ 100 nM | ≥ 7.00 | ≤ 100 nM | ≥ 8.00
18 | CC(C)C[C@H](Oc1ccc(F)cc1)[C@H]1CCNC1 [Example 10-8, (S)-3-[(S)-1-(4-Fluorophenoxy)-3-methylbutyl]pyrrolidine] | ≤ 100 nM | ≥ 8.00 | ≤ 10 nM | ≥ 8.00

Row | Compound | IC50 [1] | pKi [2] | IC50 [3] | pKi [4]
19 | CC(C)CC(Oc1ccc(F)cc1)C1CCNC1 (centres unmarked) [Example 10-9, 3-[1-(4-Fluorophenoxy)-3-methylbutyl]pyrrolidine] | ≤ 100 nM | ≥ 8.00 | ≤ 10 nM | ≥ 8.00
20 | CC(C)CC(Oc1ccc(Cl)cc1)C1CCNC1 (centres unmarked) [Example 10-10, 3-[1-(4-Chlorophenoxy)-3-methylbutyl]pyrrolidine] | ≤ 10 nM | ≥ 8.00 | ≤ 10 nM | ≥ 8.00
21 | CC(C)C[C@@H](Oc1ccc(Cl)cc1)[C@H]1CCNC1 [Example 10-11, (S)-3-[(R)-1-(4-Chlorophenoxy)-3-methylbutyl]pyrrolidine] | ≤ 10 nM | ≥ 8.00 | ≤ 10 nM | ≥ 8.00
22 | CC(C)C[C@H](Oc1ccc(Cl)cc1)[C@H]1CCNC1 [Example 10-13, (S)-3-[(S)-1-(4-Chlorophenoxy)-3-methylbutyl]pyrrolidine] | ≤ 10 nM | ≥ 8.00 | ≤ 10 nM | ≥ 8.00
23 | CC(C)CC(Oc1ccc(C(F)(F)F)cc1)C1CCNC1 (centres unmarked) [Example 10-15, 3-[3-Methyl-1-(4-trifluoromethylphenoxy)butyl]pyrrolidine] | ≤ 10 nM | ≥ 8.00 | ≤ 100 nM | ≥ 8.00
24 | CC(C)C[C@H](Oc1ccc(C(F)(F)F)cc1)[C@H]1CCNC1 [Example 10-16, (S)-3-[(S)-3-Methyl-1-(4-trifluoromethylphenoxy)butyl]pyrrolidine] | ≤ 10 nM | ≥ 8.00 | ≤ 10 nM | ≥ 8.00
25 | CC(C)C[C@@H](Oc1cccc(Cl)c1F)[C@H]1CCNC1 [Example 10-18, (S)-3-[(R)-1-(3-Chloro-2-fluorophenoxy)-3-methylbutyl]pyrrolidine] | ≤ 10 nM | ≥ 8.00 | ≤ 10 nM | ≥ 8.00
26 | CC(C)C[C@H](Oc1cccc(Cl)c1F)[C@H]1CCNC1 [Example 10-19, (S)-3-[(S)-1-(3-Chloro-2-fluorophenoxy)-3-methylbutyl]pyrrolidine] | ≤ 10 nM | ≥ 8.00 | ≤ 10 nM | ≥ 8.00
27 | CC(C)CC(Oc1cccc(C(F)(F)F)c1F)C1CCNC1 (centres unmarked) [Example 10-20, 3-[1-(2-Fluoro-3-trifluoromethylphenoxy)-3-methylbutyl]pyrrolidine] | ≤ 100 nM | ≥ 8.00 | ≤ 100 nM | ≥ 8.00
28 | CC(C)CC(Oc1cccc(Cl)c1Cl)C1CCNC1 (centres unmarked) [Example 10-22, 3-[1-(2,3-Dichlorophenoxy)-3-methylbutyl]pyrrolidine] | ≤ 10 nM | ≥ 8.00 | ≤ 10 nM | ≥ 8.00
29 | CC(C)C[C@@H](Oc1cccc(Cl)c1Cl)[C@H]1CCNC1 [Example 10-23, (S)-3-[(R)-1-(2,3-Dichlorophenoxy)-3-methylbutyl]pyrrolidine] | ≤ 10 nM | ≥ 8.00 | ≤ 10 nM | ≥ 8.00
30 | CC(C)C[C@H](Oc1cccc(F)c1Cl)[C@H]1CCNC1 [Example 10-25, (S)-3-[(S)-1-(2-Chloro-3-fluorophenoxy)-3-methylbutyl]pyrrolidine] | ≤ 10 nM | ≥ 8.00 | ≤ 10 nM | ≥ 8.00
31 | CC(C)C[C@@H](Oc1cccc(F)c1Cl)[C@H]1CCNC1 [Example 10-27, (S)-3-[(R)-1-(2-Chloro-3-fluorophenoxy)-3-methylbutyl]pyrrolidine] | ≤ 10 nM | ≥ 8.00 | ≤ 10 nM | ≥ 8.00
32 | CC(C)CC(Oc1cccc(C(F)(F)F)c1Cl)C1CCNC1 (centres unmarked) [Example 10-29, 3-[1-(2-Chloro-3-trifluoromethylphenoxy)-3-methylbutyl]pyrrolidine] | ≤ 10 nM | ≥ 8.00 | ≤ 10 nM | ≥ 8.00
33 | CC(C)C[C@H](Oc1cccc(C(F)(F)F)c1Cl)[C@H]1CCNC1 [Example 10-30, (S)-3-[(S)-1-(2-Chloro-3-trifluoromethylphenoxy)-3-methylbutyl]pyrrolidine] | ≤ 10 nM | ≥ 8.00 | ≤ 10 nM | ≥ 8.00
34 | Cc1c(Cl)cccc1O[C@H](CC(C)C)[C@H]1CCNC1 [Example 10-31, (S)-3-[(R)-1-(3-Chloro-2-methylphenoxy)-3-methylbutyl]pyrrolidine] | ≤ 10 nM | ≥ 8.00 | ≤ 10 nM | ≥ 8.00
35 | CC(C)CC(Oc1cccc(Cl)c1C(F)(F)F)C1CCNC1 (centres unmarked) [Example 10-35, 3-[1-(3-Chloro-2-trifluoromethylphenoxy)-3-methylbutyl]pyrrolidine] | ≤ 10 nM | ≥ 8.00 | ≤ 10 nM | ≥ 8.00
